Measurements from patent US20100068747A1, “Generic Assay for Monitoring Endocytosis” (Evotec Technologies GmbH, priority 2005, published 2010).

Experiments:
U2OS/ETAR-GFP cells [1] = assay: Lectin labeling of fixed cells, U2OS/ETAR-GFP; type: cell-based, human; details: TRITC-lectin 10 nM and 20 nM
Protocol: Lectin labeling of fixed cells was conducted as follows: To detach confluent cells in order to prepare experiments for internalization studies, cells were always treated with EDTA solution instead of trypsin solution. For all seeding, washing, and labeling steps in 96-well plates a working volume of 100 μl per well was assessed. Cells were seeded out into a 96-well plate at different concentrations. U2OS/ETAR-GFP suspensions were adjusted to yield 2*10^4 cells/well, both of the CHO cell lines must be at 2.5*10^4 cells/well. Cells became confluent after 24 hours of incubation. In the following, they were washed with phosphate buffered saline (PBS) and fixed with 3% PFA for 20 minutes at RT. Then, cells were washed again with PBS and incubated in 10 nM and 20 nM solutions of each TRITC-lectin candidate in PBS, respectively. Again, cells were washed with PBS to remove excess lectin, and wells were refilled with PBS for analysis. For specificity controls, lectin solutions were incubated for 30 minutes prior to the application with an excess of the monosaccharide that represents the respective glyco-epitope.
(§1) The following microscopy and image analysis techniques were employed. When utilizing the epifluorescence microscope magnifications were adjusted according to the purpose of observation, e.g. single cell vs. cell collective. Concerning the filters U-MNU was used for Hoechst, U-MSWB for GFP, and U-N41007 for TRITC detection. Hoechst images were taken at 50 ms exposure time, GFP images at 100 to 200 ms and TRITC images needed 500 to 1000 ms. Overlay images were assembled with AnalySIS and tuned in color intensity to obtain the desired color contrast. Images taken to compare two experimental conditions, e.g. control vs. stimulus, featured identical exposure parameters. If possible, well areas were chosen that reflect similar states of confluence. Utilizing the Opera confocal fluorescence imager, the instrument was calibrated running standard methods for skew cropping (spatial camera alignments) and camera intensity normalization.

U2OS/ETAR-GFP cells [2] = assay: Lectin labeling of live cells, U2OS/ETAR-GFP; type: cell-based, human
CHO/PAR-2 cells = assay: Lectin labeling of live cells, CHO/PAR-2; type: cell-based; details: TRITC-lectin, 10 nM at maximum
Protocol: (§2) Lectin labeling of live cells was conducted as follows: Cells were seeded as described above. After 24 hours cells were washed once with PBS and incubated in the incubator for another 2 hours in the respective standard medium without serum supplement to deprive them of serum factor mediated stimuli. This step was termed starvation period. Subsequently, cells were washed gently with PBS and incubated with 37° C. tempered assay medium comprised of Hank's Balanced Salt Solution (HBSS) pH 7.4, containing 20 mM HEPES and 30 mM D-glucose. The plate was left at RT for 30 minutes to slowly level its temperature and, thus, avoid capturing of temperature drop induced membrane dynamics. This period was termed leveling period. Then, assay medium was withdrawn and wells refilled with TRITC-lectin solutions at RT to start cell labeling. Several lectin concentrations in the low nano-molar range were tested. Molar concentrations were calculated from the data provided by Vector Labs. The plate was placed on a rotating shaker at low revolutions for 10 minutes while incubating. The start of the lectin incubation is referred to as assay starting point with t=0 min. After the 10 min incubation period the cells were gently washed with PBS and wells refilled with assay buffer at RT. Instantly thereafter, fluorescence signals were monitored predominately using the epifluorescence microscope.
as §1

U2OS/ETAR-GFP cells [3] = assay: Lectin labeling of live cells, U2OS/ETAR-GFP; type: cell-based, human; details: TRITC-lectin, 10 nM at maximum
Protocol: as §2, §1

[4] = tested on: CHO/ETAR cell membrane protein; assay: Lectin blotting of ETAR membrane sample; type: binding
Protocol: Membrane preparation was conducted as follows: Cells were cultured in five T175 flasks until confluency. Confluent cells were detached by applying 3 ml of EDTA solution onto the PBS washed cells. Following a 20-minute incubation at 37° C. and 5% CO2, cells were resuspended in 12 ml of starvation medium (standard medium without FCS), counted, and centrifuged in a Heraeus Megafuge 1.0R at 133 rcf for 4 minutes. All subsequent steps were carried out on ice and with ice cold solutions. After unification of all pellet fractions, hypotonic lysis buffer was added to the cells at a ratio of 1 ml per 5*10^7 cells. Additionally, protease inhibitor cocktail was added to 50 μl per 5*10^7 cells. Cells were homogenized with 30 strokes in a 5 ml potter on ice, centrifuged at 4° C. and 917 rcf for 10 minutes, and the supernatant was stored in an ultracentrifuge tube on ice. The pellet fraction was homogenized and centrifuged once again as described above. The supernatants of both procedures were unified and centrifuged at 4° C. and 100,000 rcf for 45 minutes in a Sorvall ultra-centrifuge. The supernatant of this centrifugation procedure was withdrawn and the pellet dissolved in 0.5 ml or 1.0 ml modified SDS PAGE loading buffer containing Tris-HCl, SDS, glycerol, but no β-mercapto-ethanol or dyes and stored in small aliquots of 50 μl at −20° C.
SDS-Page of membrane samples was conducted as follows: Discontinuous 12% polyacrylamide gels were prepared according to a standard protocol. Broad range marker and 25 μg membrane protein were mixed 1:1 with loading buffer and loaded five times onto a mini gel in alternating order. The gels were run at U=100 V for the first 20 minutes. Subsequently, voltage was increased to U=150 V. The run was aborted as soon as the pyronin G band reached the end of the gel. For coomassie staining, gels were put in coomassie staining solution on a shaker at low revolutions for 45 min. The staining solution was removed and the gel incubated with destaining solution for one to two hours, exchanging the solution several times until the desired contrast was obtained. […]

## succinylated Triticum vulgaris (wheat germ) agglutin [sWGA]
U2OS/ETAR-GFP cells [1]
  Staining of U2OS/ETAR-GFP: extensive fluorescence was observed at the cell surface
U2OS/ETAR-GFP cells [2]; pH 6.8, U2OS cells
  delay in spot formation: 20 min
U2OS/ETAR-GFP cells [2]; pH 8.0, U2OS cells
  spot formation at increased pH: accelerated
CHO/PAR-2 cells
  Live cell staining of CHO/PAR-2: spot formation
U2OS/ETAR-GFP cells [3]
  Live cell staining of U2OS/ETAR-GFP: spot formation
[4]; ETAR sample
  bands that stood out below 35 kDa: five
[4]; biotinylated lectin 5 μg/ml
  band at the same height as in the western (47 kDa, anti-ETAR): very faint band
